The supplement of paper PMC10307832

How the values were obtained:
Test in all cases: relative viability (nuclei count vs DMSO), 5 days (fraction); higher = more cells survive
A-427 = test system: A-427
How it was run: (§1)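 Relative viability divides the nuclei count in treated wells by that in vehicle wells. Lung cancer cell lines were seeded in 1536-well plates, dosed by pin tool the next day, and fixed and stained after 5 days in one step with final 0.05% Triton X-100, 1% formaldehyde and 1 ug/ml Hoechst. Dosing was a single drug or a fixed anchor-drug dose plus five library-drug doses (not always all listed) in √10 steps, and values are medians of duplicate plates imaged at 4×.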

BEN = test system: BEN
How it was run: as §1

ChaGo-K-1 = test system: ChaGo-K-1
How it was run: as §1

EKVX = test system: EKVX
How it was run: as §1

LK-2 = test system: LK-2
How it was run: as §1

NCI-H1650 = test system: NCI-H1650
How it was run: as §1

NCI-H1755 = test system: NCI-H1755
How it was run: as §1

NCI-H2085 = test system: NCI-H2085
How it was run: as §1

NCI-H2228 = test system: NCI-H2228
How it was run: as §1

NCI-H2347 = test system: NCI-H2347
How it was run: as §1

NCI-H3122 = conditions: first compound 0.2 µM
How it was run: as §1

SMILES: COCC1(CO)C(=O)C2CCN1CC2 (centres undefined) [PRIMA-1MET] + Cc1cc(Nc2cc(N3CCN(C)CC3)nc(Sc3ccc(NC(=O)C4CC4)cc3)n2)n[nH]1 [Tozasertib] (partner 0.1 µM)
- relative viability (A-427; first compound 0.2 µM): 0.163
- relative viability (A-427; first compound 0.6325 µM): 0.201
- relative viability (A-427; first compound 2 µM): 0.203
- relative viability (A-427; first compound 6.325 µM): 0.186
- relative viability (A-427; first compound 20 µM): 0.175
- relative viability (BEN; first compound 0.2 µM): 0.504
- relative viability (BEN; first compound 0.6325 µM): 0.473
- relative viability (BEN; first compound 6.325 µM): 0.501
- relative viability (BEN; first compound 20 µM): 0.538
- relative viability (ChaGo-K-1; first compound 0.2 µM): 0.209
- relative viability (ChaGo-K-1; first compound 0.6325 µM): 0.2
- relative viability (ChaGo-K-1; first compound 2 µM): 0.213
- relative viability (ChaGo-K-1; first compound 6.325 µM): 0.224
- relative viability (ChaGo-K-1; first compound 20 µM): 0.207
- relative viability (EKVX; first compound 0.2 µM): 0.452
- relative viability (EKVX; first compound 0.6325 µM): 0.357
- relative viability (EKVX; first compound 6.325 µM): 0.397
- relative viability (EKVX; first compound 20 µM): 0.366
- relative viability (LK-2; first compound 0.2 µM): 0.189
- relative viability (LK-2; first compound 0.6325 µM): 0.177
- relative viability (LK-2; first compound 2 µM): 0.144
- relative viability (LK-2; first compound 6.325 µM): 0.161
- relative viability (LK-2; first compound 20 µM): 0.132
- relative viability (NCI-H1650; first compound 0.2 µM): 0.516
- relative viability (NCI-H1650; first compound 0.6325 µM): 0.377
- relative viability (NCI-H1650; first compound 2 µM): 0.492
- relative viability (NCI-H1650; first compound 6.325 µM): 0.537
- relative viability (NCI-H1650; first compound 20 µM): 0.0907
- relative viability (NCI-H1755; first compound 0.2 µM): 0.699
- relative viability (NCI-H1755; first compound 0.6325 µM): 0.596
- relative viability (NCI-H1755; first compound 2 µM): 0.509
- relative viability (NCI-H1755; first compound 6.325 µM): 0.554
- relative viability (NCI-H1755; first compound 20 µM): 0.455
- relative viability (NCI-H2085; first compound 0.2 µM): 0.936
- relative viability (NCI-H2085; first compound 0.6325 µM): 0.927
- relative viability (NCI-H2085; first compound 2 µM): 0.84
- relative viability (NCI-H2085; first compound 6.325 µM): 0.828
- relative viability (NCI-H2085; first compound 20 µM): 0.227
- relative viability (NCI-H2228; first compound 0.2 µM): 0.312
- relative viability (NCI-H2228; first compound 0.6325 µM): 0.262
- relative viability (NCI-H2228; first compound 2 µM): 0.322
- relative viability (NCI-H2228; first compound 6.325 µM): 0.203
- relative viability (NCI-H2228; first compound 20 µM): 0.0992
- relative viability (NCI-H2347; first compound 0.2 µM): 0.566
- relative viability (NCI-H2347; first compound 0.6325 µM): 0.531
- relative viability (NCI-H2347; first compound 2 µM): 0.237
- relative viability (NCI-H2347; first compound 6.325 µM): 0.516
- relative viability (NCI-H2347; first compound 20 µM): 0.433
- relative viability (NCI-H3122): 0.524
